# Experimental data from US9605027B2, “Polypeptides that bound to IL-23 receptor and inhibit binding of IL-23 and cell signaling thereof” (Medical Diagnostic Laboratories, LLC, priority 2011, dated 2017).
# Peptide text beside a SMILES is read from it.
# Key:
# [1] = biological target: IL-23 induced IL-22 production in human PBMCs (Homo sapiens, UniProt Q5VWK5); experiment: IL-22 production induced by IL-23 in human PBMC; format: cell-based; conditions: IL-23 2 ng/ml, ELISA; read-out: IC50, inhibition of IL-22 production
# Sequence of IL-23 induced IL-22 production in human PBMCs (Q5VWK5 24-629 limits assumed): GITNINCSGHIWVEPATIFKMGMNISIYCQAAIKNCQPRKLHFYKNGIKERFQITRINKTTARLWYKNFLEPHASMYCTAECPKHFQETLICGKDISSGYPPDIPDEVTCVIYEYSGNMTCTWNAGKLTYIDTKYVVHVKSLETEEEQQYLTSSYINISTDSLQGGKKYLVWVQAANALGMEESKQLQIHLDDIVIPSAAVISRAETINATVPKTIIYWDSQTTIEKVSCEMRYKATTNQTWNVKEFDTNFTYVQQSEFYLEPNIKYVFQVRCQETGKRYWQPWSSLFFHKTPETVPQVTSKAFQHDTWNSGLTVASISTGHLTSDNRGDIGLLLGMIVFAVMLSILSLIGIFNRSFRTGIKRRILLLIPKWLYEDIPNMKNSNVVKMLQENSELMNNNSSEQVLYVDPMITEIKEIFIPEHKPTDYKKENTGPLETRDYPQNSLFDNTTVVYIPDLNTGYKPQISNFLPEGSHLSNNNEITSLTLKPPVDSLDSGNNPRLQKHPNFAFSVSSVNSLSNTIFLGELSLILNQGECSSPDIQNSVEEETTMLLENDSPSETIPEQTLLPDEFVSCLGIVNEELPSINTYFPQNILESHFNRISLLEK
# Experimental: Peripheral blood mononuclear cells (PBMCs) were isolated from heparinized venous whole blood from healthy donors by density gradient centrifugation using Ficoll-Paque (Sigma-Aldrich, St Louis, Mo., USA). Human venous blood was purchased as anonymous buffy coats from the New Jersey Blood Transfusion Service. After isolation, the PBMCs were cultured in RPMI-1640 medium (Invitrogen-Gibco, Carlsbad, Calif.) supplemented with 10% heat-inactivated fetal bovine serum (Invitrogen-Gibco) and 1 mM of glutamine (Invitrogen-Gibco) at 37° C.
# Isolated PBMCs (5×10^6 cells/ml) were cultured in the presence of […] and IL-18 (20 ng/ml). A serial dilution of IL-23 (from 0-2 ng/ml) was added to the cell culture for 30 hours. We measured the production of IL-22 by ELISA (Catalog #88-7522, eBioscience, San Diego, Calif.) according to manufacturer's protocol).
# In order to measure the IC50 value of cyclic peptide no. 2HT AA (SEQ ID NO: 177), the cells were treated with a fixed amount of IL-23 cytokine (2 ng/ml) in the presence of a serial dilution of cyclic peptide no. 2HT AA (SEQ ID NO: 177). The cyclic peptide (SEQ ID NO: 177) inhibits IL-23 cytokine in PBMCs in a dose-dependent manner. […] Thus, the cyclic peptide no.
# [2] = system: IL-23 induced IL-17F in rat splenocytes; experiment: IL-17F mRNA expression induced by IL-23 in rat splenocytes; format: cell-based; conditions: IL-23 200 ng/ml, qRT-PCR; read-out: IC50, inhibition of IL-17F mRNA expression
# Experimental: Sprague Dawley (SD) rat spleen was isolated and placed in 3 ml of media (RPMI 1640 with 10% FBS) in a small petri dish (35×10 mm). The rat spleen was placed on a sterile wire mesh screen using sterile forceps. The rat spleen was pushed through the screen with the plunger of a 10 ml syringe into the petri dish. Then, the suspension was mixed by gently pipetting up and down. The cells were spun down at 1,000 rpm for 10 minutes. Red blood cells were lysed by adding a Red Blood Cell lysis buffer. The cell suspension was incubated at room temperature for 5 minutes. The cells were spun down at 1,000 rpm for 10 minutes. The pelleted splenocytes were washed twice with PBS. After washing, the isolated splenocytes were re-suspended in 10 ml of culture media (RPMI 1640 with 10% FBS).
# Rat splenocytes (2.5×10^6 cells/ml) were prepared and cultured in RPMI-1640 with 10% FBS for 16 hours at 37° C. Cyclic peptide no. […] The stimulation was carried out for an additional 4 hours. mRNA expression of IL-17F was measured by qRT-PCR (rat IL-17F forward primer (GGC-TCC-TGT-GAA-ACA-ACC-AT)(SEQ ID NO: 180) and rat IL-17F reverse primer (ACA-GAA-ATG-CCC-TGG-TTT-TG) (SEQ ID NO: 181). The PCR was performed under the following conditions: 95° C. for 5 minutes, 95° C. for 30 seconds, 60° C. for 30 seconds 72° C. for 30 seconds, times 40 cycles. […]
compound,measurement,setting,value
CSCC[C@@H]1NC(=O)[C@H](CCCCN)NC(=O)[C@H](C)NC(=O)[C@H](C)NC(=O)[C@H](CS)NC(=O)[C@H](CC(N)=O)NC(=O)[C@H](CCCCN)NC(=O)[C@H](CC(C)C)NC(=O)[C@H](Cc2c[nH]c3ccccc23)NC(=O)[C@H](Cc2ccc(O)cc2)NC(=O)[C@H](CC(=O)O)NC(=O)[C@H](C(C)C)NC(=O)[C@H](Cc2c[nH]c3ccccc23)NC(=O)[C@H]([C@@H](C)O)NC1=O [2HT AA] (cyclo(AAKMTWVDYWLKNC)),IC50,[1],337 nM
same,IC50,[2],270 nM
